Data set [1] concerns Neuro-2a cells. As to the kind of experiment: Internalization (take-up) of αSyn-Alexa488 fibrils by Neuro-2a cells, 96-well plate assay with Trypan blue quenching. Format: cell-based, Murine. Conditions: Trypan blue quench; for effect of endocytosis inhibitors on αSyn fibrils take-up by Neuro-2a cells: cells exposed 1 hour to chlorpromazine 0–10 μg/ml or EIPA 0–50 μM before αSyn-Alexa488 fibrils 0.5 μM, 4 hours, 5 wells. Here is the method:
The uptake of Alexa488-labeled αSyn fibrils (0.5 μM equivalent monomer concentration) pre-incubated or not for 30 min at 37°C in DMEM with the ligands (Hsc70, peptides or Surfen) at different concentrations to Neuro-2A cells was also assessed using a 96-well plate assay. The cells cultured on 96-wells plates were incubated with the fibrils, preincubated or not with the ligands for 30 min at 37°C in DMEM, in 5 independent wells. After 4 hours the media was removed and Hoechst (Sigma-Aldrich) diluted at 0.2 μg/ml in serum-free, phenol red-free DMEM was added for 30 min. The cells were washed twice with serum-free, phenol red-free DMEM and 0.1% Trypan Blue (Sigma-Aldrich) was added to quench the fluorescence of plasma membrane-bound Alexa488-labeled αSyn fibrils. For each wells Alexa488 and Hoechst fluorescences were recorded on a Clariostar microplate reader (BMG LABTECH GmbH, Germany).
To assess to role of endocytosis in αSyn fibrils internalization, Neuro-2a cells cultured on 96-wells plates were first incubated with increasing concentrations of chlorpromazine or l’5-N-ethyl-isopropyl-amiloride (EIPA). After 1 hour Alexa488-labeled αSyn fibrils (0.5 μM equivalent monomer concentration) was added. The experiment was then performed as above.

Another data set concerns the target T1, αSyn fibrils (Homo sapiens, UniProt P37840).
T1 construct: made in house
As to the kind of experiment: Binding of peptides and Surfen to preformed αSyn fibrils, sedimentation and reversed phase chromatography. Conditions: αSyn fibrils 100 μM; for Bound peptides / Bound peptides (%) / binding to αSyn fibrils (in words): ligand 200 μM, 1h RT, PBS; for Bound peptides / Bound peptides (%): pellet 20,000g, C18 reversed phase chromatography, absorbance 215 nm (peptides) or 260 nm (Surfen); for binding to αSyn fibrils (in words) / Kd: sedimentation, reversed phase chromatography; for Kd: peptide 0–200 μM. The procedure: Hsc70-derived peptides, the […] peptide or the Surfen molecule (0 or 200 μM) were incubated with or without αSyn fibrils (100 μM) for 1h at RT in PBS. The samples were centrifuged for 30 min in a […] tabletop centrifuge (Eppendorf) at 20,000g and 20°C. The pellets were first washed by 100 μL of 0.1% TFA and then dissolved for 30 min in 30 μL of pure TFA. After TFA evaporation, the samples were resuspended in 0.1% TFA and stored at -20°C. The composition of each sample was assessed by phase reverse chromatography on a C18 column (Jupiter C18 300A from Phenomenex, Torrance, CA, USA). The solvant composition was 0.1% TFA for solvent A and 80% acetonitrile, 0.09% TFA for solvent B, and the flow was set at 200 μl/min. The column was equilibrated in 5% B. The peptides were eluted by a gradient from 5% to 80% of solvent B. The amount of αSyn-associated ligand present in each sample was determined by comparing their respective absorbance at 215 nm (peptides) or 260 nm (Surfen) to the absorbance of a known amount of the same ligand. For KD measurements the same experiment was performed using a range of peptide concentrations (0-200 μM).

Data set [2] is described as follows: Secondary structure content by far-UV circular dichroism. It counts as physicochemical. Conditions: far-UV CD, 20°C, deconvoluted with Dichroweb. The procedure: Far-UV CD spectra were recorded at 20°C using a JASCO J-810 dichrograph equipped with a thermostated cell holder using a 0.01-cm path length quartz cuvette. Each spectrum was the average of 10 acquisitions recorded in the 260–195 nm range with 0.5-nm steps, a bandwidth of 2 nm, and at a speed of 50 nm/min. All spectra were buffer corrected. The spectra were deconvoluted with the Dichroweb software.
(In general: Circular dichroism is widely used to follow secondary structure.)

The next data set has as its system monomeric αSyn. Kind of data set: Monomeric αSyn assembly into fibrils monitored by Thioflavin T binding. It counts as biochemical, human. The note with it: soluble αSyn 50 μM, peptide 50 μM (equimolar), PBS, 37°C, 600 rpm, 4 independent experiments. The procedure: αSyn (50 μM monomer concentration) was incubated in the absence or in the presence of peptides (50 μM) in PBS at 37°C under continuous shaking in an Eppendorf Thermomixer set at 600 rpm. Aliquots (10 μL) were withdrawn at different time intervals from the assembly reaction and mixed to a Thioflavin T solution (10 μM; 400 μL). Thioflavin T fluorescence was recorded with a Cary Eclipse spectrofluorimeter (Varian Medical Systems Inc.) using excitation and emission wavelengths set at 440 and 480 nm, respectively. The nature of the fibrils obtained at the end of the aggregation reaction was assessed by electron microscopy as described above. The proportion of αSyn assembled into fibrils was assessed by ultracentifugation in a TL100 tabletop centrifuge (Beckman) at 50,000g and 20°C for 30 min and analyse of the supernatant and pellet fractions by SDS-PAGE. Following Coomassie staining / destaining the gels were visualized using a ChemiDocTM MP (BioRad). Images were processed and quantified using Image Lab.

Data set [3] relates to fibrillar αSyn. Conditions: sedimentation assay; read-out: dissociation constant of Hsc70 for fibrillar αSyn; cited from earlier work. Here is the method:
We previously brought evidence for Hsc70 interaction with fibrillar αSyn using a sedimentation assay. The dissociation constant we measured was 0.1 μM. Here we confirmed the interaction between Hsc70 and fibrillar αSyn using the same sedimentation assay followed by quantitative analysis of the proteins in the pellet and the supernatant fractions by SDS-PAGE (Fig 1A). […] To determine the affinity of Hsc70 for fibrillar αSyn we incubated preform ...

In data set [4] the test system is fibrillar αSyn. Kind of data set: Sedimentation assay of Hsc70 with fibrillar αSyn, SDS-PAGE of pellet and supernatant. Format: binding, human. The note with it: Hsc70 10 μM, fibrillar αSyn 100 μM, 1h RT, PBS, 50,000g 30 min. The procedure:
For binding assay, αSyn fibrils (100 μM) alone, Hsc70 alone (10 μM) or αSyn fibrils and Hsc70 (100 and 10 μM, respectively) were incubated for 1h at RT in PBS. Samples were spun for 30 min at 50,000g and 20°C in a TL100 tabletop ultracentrifuge (Beckman) and the proportion of Hsc70 present in the pellet vs the supernatant was analysed by SDS-PAGE.

For data set [5], the system named is Neuro-2a cells. Kind of data set: Binding of αSyn-Alexa488 fibrils to the plasma membrane of Neuro-2a cells. Format: cell-based, Murine. Conditions: αSyn-Alexa488 fibrils 1 μM pre-incubated with ligand (0–10 μM) in DMEM 30 min 37°C; cells exposed 30 min; % cells with at least 1 fluorescent foci. The procedure: Alexa488-labeled αSyn fibrils (1 μM equivalent monomer concentration) were first incubated for 30 min at 37°C in DMEM without or with the ligands (Hsc70 or the NKApep peptide) at different concentrations. Neuro-2a cells cultured on ibidi-μ-Dishes (ibidi, Martinsried, Germany) were then incubated for 30 min with this mix. Then, the cells were washed and immediately imaged in serum-free, phenol red-free DMEM on a Zeiss Axio Observer Z1 epifluorescence microscope equipped with an Incubator XLmulti S2 RED LS (Carl Zeiss) and an Orca-R2 camera (Hamamatsu) at a 20x magnification. The percentage of cells with bound Alexa488 foci was estimated by randomly counting at least 500 cells in 10–15 fields and the experiments were reproduced independently 3 times. For each field the number of foci was automatically assessed using the software Fiji and an in-house built plugin.

No end group written: not given here.

Regarding `CCN(c1nc(N)c(C(=O)N=C(N)N)nc1Cl)C(C)C` [EIPA, l’5-N-ethyl-isopropyl-amiloride], the “effect of endocytosis inhibitors on αSyn fibrils take-up by Neuro-2a cells” value in the data set with Neuro-2a cells [1] is reported as “inhibited in a dose-dependent manner”.

Consider `Cc1cc(N)c2cc(NC(=O)Nc3ccc4nc(C)cc(N)c4c3)ccc2n1` [Surfen, reference compound], for which, in the data set on Neuro-2a cells [1] (ligand 2 or 10 μM with Alexa488-labeled αSyn fibrils 1 μM in DMEM 30 min 37°C, cells exposed 2 hours, 3 independent experiments), the “effect on αSyn fibrils take-up by Neuro-2a cells” value was “affected, in a dose-dependent way, their take-up”. In addition, at αSyn fibrils, the “Bound peptides” value was determined as 176 µM, the “Bound peptides (%)” value is listed as 88% and the “binding to αSyn fibrils (in words)” value was “found to bind to αSyn fibrils”.

Turning to `CN(C)CCCN1c2ccccc2Sc2ccc(Cl)cc21` [chlorpromazine], the “effect of endocytosis inhibitors on αSyn fibrils take-up by Neuro-2a cells” value in the data set on Neuro-2a cells [1] is listed as “inhibited in a dose-dependent manner”.

Turning to FTTYSDNQPGV [Hsc-5], in data set [2], the “Secondary structure composition other” value was determined as 85%, the “Secondary structure composition α-helix” value came out at 0% and the “Secondary structure composition β-strand” value was found to be 15%. For the same compound, at αSyn fibrils, the “Bound peptides” value is 2.8 µM, the “Bound peptides (%)” value was determined as 1.4% and the “binding to αSyn fibrils (in words)” value was “did not bind”.

For the compound GILNVSAVDKSTGKENKITITN [Hsc-10], in data set [2], the “Secondary structure composition other” value was 41%, the “Secondary structure composition α-helix” value was found to be 46% and the “Secondary structure composition β-strand” value is on record as 13%. Also, on αSyn fibrils, the “Bound peptides” value turned out to be 72 µM, the “Bound peptides (%)” value came out at 36%, the “binding to αSyn fibrils (in words)” value is “did bind” and the Kd was greater than 100 µM. For the same compound, the “effect on αSyn assembly into fibrils” value in the data set with monomeric αSyn is recorded as “accelerated aggregation”.

GKFELTGIPPAPRGVPQIEVT [Hsc-8]: in data set [2], the “Secondary structure composition other” value was 69%, the “Secondary structure composition α-helix” value was 7% and the “Secondary structure composition β-strand” value is 24%. Also, at αSyn fibrils, the “Bound peptides” value was found to be 1.6 µM, the “Bound peptides (%)” value was 0.8% and the “binding to αSyn fibrils (in words)” value is reported as “did not bind”.

With “Hsc70: molecular chaperone Hsc70, recombinant His6-tagged, full-length”, in the data set on fibrillar αSyn [3], the Kd was 0.1 µM. In the data set with Neuro-2a cells [1] (αSyn-Alexa488 fibrils 0.5 μM pre-incubated with ligand 0–10 μM in DMEM 30 min 37°C, cells exposed 4 hours, plate reader), the “effect on αSyn fibrils take-up by Neuro-2a cells” value is recorded as “significantly affected their take-up”. Moreover, the “Hsc70 co-sedimentation with pre-formed αSyn fibrils” value in the data set on fibrillar αSyn [4] is “pulled into the pellet”. For the same compound, the “effect on αSyn fibrils binding to Neuro-2a cells” value with Neuro-2a cells [5] is given as “affects αSyn fibrils binding to Neuro-2a cells in a dose-dependent manner”.

For LSKEDIERMVQEAEKY [Hsc-1], in data set [2], the “Secondary structure composition other” value is 48%, the “Secondary structure composition α-helix” value is recorded as 52% and the “Secondary structure composition β-strand” value came out at 0%. In addition, on αSyn fibrils, the “Bound peptides” value was 1.2 µM, the “Bound peptides (%)” value is given as 0.6% and the “binding to αSyn fibrils (in words)” value was “did not bind”.

As to LTGIPPAPRGVPQIE [Hsc-7], in data set [2], the “Secondary structure composition other” value is 73%, the “Secondary structure composition α-helix” value is reported as 10% and the “Secondary structure composition β-strand” value was determined as 17%. In addition, on αSyn fibrils, the “Bound peptides” value amounted to 1.2 µM, the “Bound peptides (%)” value came to 0.6% and the “binding to αSyn fibrils (in words)” value was “did not bind”.

On to NMKATVEDEKLQGKINDEDKQKIL [Hsc-3], for which, in data set [2], the “Secondary structure composition other” value is 84%, the “Secondary structure composition α-helix” value was found to be 9% and the “Secondary structure composition β-strand” value worked out at 7%. Besides, on αSyn fibrils, the “Bound peptides” value came out at 1.2 µM, the “Bound peptides (%)” value is listed as 0.6% and the “binding to αSyn fibrils (in words)” value is listed as “did not bind”.

As for TKQTQTFTTYSDNQPGVLIQVYE [Hsc-6], in data set [2], the “Secondary structure composition other” value turned out to be 80%, the “Secondary structure composition α-helix” value is recorded as 0% and the “Secondary structure composition β-strand” value came to 20%. Moreover, at αSyn fibrils, the “Bound peptides” value came to 68 µM, the “Bound peptides (%)” value was 34%, the “binding to αSyn fibrils (in words)” value is listed as “did bind” and the Kd was greater than 100 µM. The “effect on αSyn assembly into fibrils” value with monomeric αSyn is given as “significantly slowed down αSyn assembly into fibrils”.

For the compound VEDEKLQGKINDED [Hsc-2], in data set [2], the “Secondary structure composition other” value came to 81%, the “Secondary structure composition α-helix” value is 6% and the “Secondary structure composition β-strand” value worked out at 13%. In addition, on αSyn fibrils, the “Bound peptides” value was found to be 1.0 µM, the “Bound peptides (%)” value is listed as 0.5% and the “binding to αSyn fibrils (in words)” value is “did not bind”.

Source of the values: PMC7425896, “Polypeptides derived from α-Synuclein binding partners to prevent α-Synuclein fibrils interaction with and take-up by cells” (PLoS ONE, 2020).
